In patent publication US8021686B2, “Lipid-encapsulated polyanionic nucleic acid” (The University of British Columbia, priority 1997, dated 2011):

Key:
[1] = pKa of amino lipid; assay type: physicochemical
[2] = Assessment of antisense encapsulation (encapsulation efficiency, drug:lipid ratio); assay type: physicochemical
Description: drug to lipid ratio: The amount of drug (therapeutic agent) in a defined volume of preparation divided by the amount of lipid in the same volume. This may be on a mole per mole basis or on a weight per weight basis, or on a weight per mole basis. For final, administration-ready formulations, the drug:lipid ratio is calculated after dialysis, chromatography and/or enzyme (e.g., nuclease) digestion has been employed to remove as much of the external therapeutic agent (e.g., nucleic acid) as possible.
encapsulation efficiency: the drug to lipid ratio of the starting mixture divided by the drug to lipid ratio of the final, administration competent formulation. This is a measure of relative efficiency. For a measure of absolute efficiency, the total amount of therapeutic agent (nucleic acid) added to the starting mixture that ends up in the administration competent formulation, can also be calculated. The amount of lipid lost during the formulation process may also be calculated. […]
Antisense encapsulation was typically assessed by dual label ([^3H]-antisense and [^14C]-lipid) liquid scintillation counting after gel filtration chromatography to separate the free and encapsulated antisense. Antisense encapsulation was evaluated by summing the total [^3H]-antisense radioactivity associated with the lipid peak and dividing by the total [^3H]-antisense radioactivity. […]

[3] = tested on: ICAM-1 gene; assay: Ear inflammation model (DNFB contact sensitivity); assay type: in vivo, ICR mice; conditions: lipid-encapsulated antisense, i.v. 20-30 mg/kg 15 min after DNFB, 24 hours
Description: Mice were sensitized by applying 25 μL of 0.5% 2,4-dinitro-1-fluorobenzene (DNFB) in acetone: olive oil (4:1) to the shaved abdominal wall for two consecutive days. Four days after the second application, mice were challenged on the dorsal surface of the left ear with 10 μL of 0.2% DNFB in acetone:olive oil (4:1). Mice received no treatment on the contralateral (right) ear. In some cases, control mice received 10 μL of vehicle on the dorsal surface of the left ear.
Ear thickness was measured immediately prior to ear challenge, and at various time intervals after DNFB challenge, using an engineer's micrometer (Mitutoyo, Tokyo, Japan). Increases in ear thickness measurements were determined by subtracting the pre-challenge from post-challenge measurements.
Inflamed mice were treated at the time of ear challenge with a 30 mg/kg i.v. dose of either HBS (no oligo), EPC:CHOL liposomes with entrapped PS-3082 (identified as AS 1000), POPC:CHOL:DODAP:PEG-CerC14 with entrapped PS-3082 (identified as AS 4100), or DSPC:CHOL:DODAP:PEG-CerC14 with entrapped PS-3082 (identified as AS 4200). Ear swelling was measured at 24 hours after initiating inflammation using an engineer's micrometer.
Antisense Sample Preparation: Antisense was encapsulated using the standard methods of Examples 5-9, using the phosphodiester modification. […]

[4] = tested on: MDA-MB-453 human breast carcinoma; assay: Tumor window model, human breast tumor; assay type: in vivo, mouse; conditions: i.v. 10 mg/kg/administration, 3 administrations/week
From the text: The human breast carcinoma line MDA-MB-453 was implanted in a mouse tumor window model according to the method of Wu, N. Z., Da, D., Rudoll, T. L., Needham, D., Whorton, R. & Dewhirst, M. W. 1993. Increased microvascular permeability contributes to preferential accumulation of Stealth liposomes in tumor tissue. Cancer Research 53: 3765-3770; and Dewhirst, M. W., Tso, C. Y., Oliver, R., Gustafson, C. S., Secomb, T. W. & Gross, J. F. 1989. Morpholigic and hemodynamic comparison of tumor and healing normal tissue microvasculature. Int. J. Radiat. Oncol. Biol. Phys. 17: 91-99. See also Dewhirst, M W., and Needham, D. 1995. Extravasation of Stealth Liposomes into Tumors: Direct Measurement of Accumulation and Vascular Permeability using a Skin Flap Window Chamber. In Stealth Liposomes (Eds. Lasic, D. and Martin, F.) CRC Press.
In vivo efficacy evaluation: When the tumor in the window has reached a diameter of 2-3 mm, treatment with free or TCS-encapsulated US3 oligonucleotide is initiated. Treatment consists of a 200 ul intravenous administration (tail vein) of either free US3 or TCS-encapsulated US3 on a 3 administrations/week schedule and an antisense dose of 10 mg/kg/administration. Tumor size is monitored 3 times per week by microscopy.

Molecule: CCCCCCCC/C=C\CCCCCCCC(=O)OCC(CN(C)C)OC(=O)CCCCCCC/C=C\CCCCCCCC (stereo not drawn) [DODAP, 1,2-dioleoyloxy-3-dimethylaminopropane]
- pKa [1]: 6.53

Molecule: PO-2302: human ICAM-1 phosphodiester antisense GCCCAAGCTGGCATCCGTCA (SEQ ID No 2) (DNA, all phosphodiester, methylation of C not given here)
- final (administration ready) drug:lipid ratios ([2]; citrate varied, DSPC:CHOL:DODAP:PEG-CerC14 25:45:20:10): greater than 10 % by weight

Molecule: PO-3082: murine ICAM-1 phosphodiester antisense TGCATCCCCCAGGCCACCAT (SEQ ID No 1) (DNA, all phosphodiester, methylation of C not given here)
- reduction of the degree of inflammation [3]: ~85%

Molecule: PS-3082: murine ICAM-1 phosphorothioate antisense TGCATCCCCCAGGCCACCAT (SEQ ID No 1) (DNA, all phosphorothioate, methylation of C not given here)
- reduction of the degree of inflammation [3]: around 70%

Molecule: US3: anti-human erb-B-2 antisense GGT GCT CAC TGC GGC (SEQ ID No 3) (antisense GGTGCTCACTGCGGC; all phosphorothioate, sugars by position and methylation of C not given here)
- effect on tumor growth [4]: ineffective at inhibiting tumor growth

Molecule: VEGF-R1: human VEGF-R 1 ribozyme GAGUUGCUGAUGAGGCCGAAAGGCCGAAAGUCUG (SEQ ID No 16) (GAGUUGCUGAUGAGGCCGAAAGGCCGAAAGUCUG; chemistry not fully specified)
- encapsulation efficiency ([2]; 20 mM citrate, FIG. 20): over 50%
